Results as given in ChEMBL document CHEMBL3046641, “QSAR study of some CCR5 antagonists as anti-HIV agents using radial basis function neural network and general regression neural network on the basis of principal components” (Med Chem Res, 2012).

Target: C-C chemokine receptor type 5 (Homo sapiens, UniProt P51681)
Test: Antagonist activity at Homo sapiens (human) CCR5 receptor

Chain of C-C chemokine receptor type 5 (P51681 whole entry): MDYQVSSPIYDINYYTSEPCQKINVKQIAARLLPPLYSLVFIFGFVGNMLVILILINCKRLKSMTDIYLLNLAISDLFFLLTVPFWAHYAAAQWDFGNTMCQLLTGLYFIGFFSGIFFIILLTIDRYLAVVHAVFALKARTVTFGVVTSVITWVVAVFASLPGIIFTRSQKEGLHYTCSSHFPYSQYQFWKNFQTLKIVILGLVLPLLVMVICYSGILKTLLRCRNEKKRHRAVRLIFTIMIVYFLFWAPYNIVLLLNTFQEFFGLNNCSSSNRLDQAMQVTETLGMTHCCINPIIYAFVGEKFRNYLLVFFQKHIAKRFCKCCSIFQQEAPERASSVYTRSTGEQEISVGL

Structure (SMILES) | IC50 [nM]
CN(C[C@@H](CCN1CCC(c2ccccc2)CC1)c1cccc(Cl)c1)S(=O)(=O)c1ccccc1 | 10000
CN(C[C@@H](CCN1CCC2(CC1)C[S+]([O-])c1ccccc12)c1ccc(Cl)c(Cl)c1)S(=O)(=O)C1CCCCC1 (stereo partly specified) | 50
CN(C[C@@H](CCN1CCC2(CC1)C[S+]([O-])c1ccccc12)c1ccc(Cl)c(Cl)c1)S(=O)(=O)c1ccc2c(c1)CCC2 (stereo partly specified) | 5900
CN(C[C@@H](CCN1CCC2(CC1)CS(=O)(=O)c1ccccc12)c1ccc(Cl)c(Cl)c1)S(=O)(=O)c1cccs1 | 1200
CN(C[C@@H](CCN1CCC2(CC1)C[S+]([O-])c1ccccc12)c1cccc(Cl)c1)S(=O)(=O)c1ccccc1 (stereo partly specified) | 700
CN(C[C@@H](CCN1CCC2(CC1)C[S+]([O-])c1ccccc12)c1ccc(Cl)c(Cl)c1)S(=O)(=O)c1cccc2ccccc12 (stereo partly specified) | 2600
CN(C[C@@H](CCN1CCC2(CC1)CC(=O)Nc1ccccc12)c1ccc(Cl)c(Cl)c1)S(=O)(=O)c1cccc([N+](=O)[O-])c1 | 7000
CN(C[C@@H](CCN1CCC2(CC1)C[S+]([O-])c1ccccc12)c1ccc(Cl)c(Cl)c1)S(=O)(=O)Cc1ccccc1 (stereo partly specified) | 100
CN(C[C@@H](CCN1CCC2(CC1)NC(=O)c1ccccc12)c1cccc(Cl)c1)S(=O)(=O)c1ccccc1 | 300
CN(C[C@@H](CCN1CCC2(CC1)CS(=O)(=O)c1ccccc12)c1ccc(Cl)c(Cl)c1)S(=O)(=O)c1ccccc1 | 400
Cc1ccccc1N1CCN(CC[C@H](CN(C)S(=O)(=O)c2ccccc2)c2cccc(Cl)c2)CC1 | 350
CN(C[C@@H](CCN1CCC2(CC1)C[S+]([O-])c1ccccc12)c1ccc(Cl)c(Cl)c1)S(C)(=O)=O (stereo partly specified) | 150
CN(C[C@@H](CCN1CCC2(CC1)C[S+]([O-])c1ccccc12)c1ccc(Cl)c(Cl)c1)S(=O)(=O)c1cccc(Cl)c1 (stereo partly specified) | 1000
CN(C[C@@H](CCN1CCC2(CC1)C[S+]([O-])c1ccccc12)c1ccc(Cl)c(Cl)c1)S(=O)(=O)c1ccccc1Cl (stereo partly specified) | 450
CN(C[C@@H](CCN1CCC2(CC1)C[S+]([O-])c1ccccc12)c1ccc(Cl)c(Cl)c1)S(=O)(=O)c1cccnc1 (stereo partly specified) | 8490
CN(C)S(=O)(=O)N(C)C[C@@H](CCN1CCC2(CC1)C[S+]([O-])c1ccccc12)c1ccc(Cl)c(Cl)c1 (stereo partly specified) | 2700
CN(C[C@@H](CCN1CCC(CCCc2ccccc2)CC1)c1cccc(Cl)c1)S(=O)(=O)c1ccccc1 | 50
CN(C[C@@H](CCN1CCC(c2ccc(F)cc2)CC1)c1cccc(Cl)c1)S(=O)(=O)c1ccccc1 | 2500
CCCCCCCCS(=O)(=O)N(C)C[C@@H](CCN1CCC2(CC1)C[S+]([O-])c1ccccc12)c1ccc(Cl)c(Cl)c1 (stereo partly specified) | 1800
CN(C[C@@H](CCN1CCC2(CC1)C[S+]([O-])c1ccccc12)c1ccc(Cl)c(Cl)c1)S(=O)(=O)C1CCCC1 (stereo partly specified) | 500
CN(C[C@@H](CCN1CCC2(CC1)CC(=O)c1ccccc12)c1cccc(Cl)c1)S(=O)(=O)c1ccccc1 | 3400
COc1ccccc1C1CCN(CC[C@H](CN(C)S(=O)(=O)c2ccccc2)c2cccc(Cl)c2)CC1 | 1000
CN(C[C@@H](CCN1CCC(CCc2ccccc2)CC1)c1cccc(Cl)c1)S(=O)(=O)c1ccccc1 | 600

Structure (SMILES) | IC50 [nM]
CN(C[C@@H](CCN1CCC2(CC1)CNc1ccccc12)c1cccc(Cl)c1)S(=O)(=O)c1ccccc1 | 1200
CN(C[C@@H](CCN1CCC(Cc2ccccc2)CC1)c1cccc(Cl)c1)S(=O)(=O)c1ccccc1 | 650
CN(C[C@@H](CCN1CCC2(CC1)C[S+]([O-])c1ccccc12)c1ccc(Cl)c(Cl)c1)S(=O)(=O)c1cccs1 (stereo partly specified) | 3600
CN(C[C@@H](CCN1CCC(c2ccc(Cl)cc2)CC1)c1cccc(Cl)c1)S(=O)(=O)c1ccccc1 | 250
CN(C[C@@H](CCN1CCC2(CC1)CS(=O)(=O)c1ccccc12)c1ccc(Cl)c(Cl)c1)S(=O)(=O)c1cccc([N+](=O)[O-])c1 | 800
CN(C[C@@H](CCN1CCC2(CC1)Cc1ccccc1O2)c1cccc(Cl)c1)S(=O)(=O)c1ccccc1 | 4000
COc1ccc(S(=O)(=O)N(C)C[C@@H](CCN2CCC3(CC2)C[S+]([O-])c2ccccc23)c2ccc(Cl)c(Cl)c2)cc1 (stereo partly specified) | 350
Cc1ccccc1C1CCN(CC[C@H](CN(C)S(=O)(=O)c2ccccc2)c2cccc(Cl)c2)CC1 | 1200
CN(C[C@@H](CCN1CCC2(CC1)CS(=O)(=O)c1ccccc12)c1ccc(Cl)c(Cl)c1)S(=O)(=O)c1ccc([N+](=O)[O-])cc1 | 700
CN(C[C@@H](CCN1CCC2(CC1)C[S+]([O-])c1ccccc12)c1ccc(Cl)c(Cl)c1)S(=O)(=O)c1ccc(Cl)cc1 (stereo partly specified) | 350
CN(C[C@@H](CCN1CCC2(CC1)CSc1ccccc12)c1ccc(Cl)c(Cl)c1)S(=O)(=O)c1ccccc1 | 400
CN1C(=O)c2ccccc2C12CCN(CC[C@H](CN(C)S(=O)(=O)c1ccccc1)c1cccc(Cl)c1)CC2 | 1500
CN(C[C@@H](CCN1CCC2(CC1)CS(=O)(=O)c1ccccc12)c1cccc(Cl)c1)S(=O)(=O)c1ccccc1 | 1000
CN(C[C@@H](CCN1CCC2(CC1)C[S+]([O-])c1ccccc12)c1ccc(Cl)c(Cl)c1)S(=O)(=O)c1cn(C)cn1 (stereo partly specified) | 1000
CN(C[C@@H](CCN1CCC2(CC1)CSc1ccccc12)c1cccc(Cl)c1)S(=O)(=O)c1ccccc1 | 600
CN(C[C@@H](CCN1CCC2(CC1)C[S+]([O-])c1ccccc12)c1ccc(Cl)c(Cl)c1)S(=O)(=O)c1cccc2cccnc12 (stereo partly specified) | 14000
CN(C[C@@H](CCN1CCC2(CCc3ccccc32)CC1)c1cccc(Cl)c1)S(=O)(=O)c1ccccc1 | 899
CN(C[C@@H](CCN1CCC2(CC1)CC(O)c1ccccc12)c1cccc(Cl)c1)S(=O)(=O)c1ccccc1 (stereo partly specified) | 24000
CN(C[C@@H](CCN1CCC2(CC1)C[S+]([O-])c1ccccc12)c1ccc(Cl)c(Cl)c1)S(=O)(=O)c1ccc2ccccc2c1 (stereo partly specified) | 3400
CN(C[C@@H](CCN1CCC2(CC1)C[S+]([O-])c1ccccc12)c1ccc(Cl)c(Cl)c1)S(=O)(=O)c1cncc2ccccc12 (stereo partly specified) | 1000
CN(C[C@@H](CCN1CCC2(CC1)C[S+]([O-])c1ccccc12)c1ccc(Cl)c(Cl)c1)S(=O)(=O)c1ccc(-c2ccccc2)cc1 (stereo partly specified) | 1000
CN(C[C@@H](CCN1CCC(c2cccc(C(F)(F)F)c2)CC1)c1cccc(Cl)c1)S(=O)(=O)c1ccccc1 | 2000
CN(C[C@@H](CCN1CCC2(CC1)CNC(=O)c1ccccc12)c1ccc(Cl)c(Cl)c1)S(=O)(=O)c1cccc([N+](=O)[O-])c1 | 600
